Experimental data from patent US20260207624A1, “COADMINISTRATION OF ESTROGEN WITH ESTROGEN RECEPTOR MODULATOR OR DEGRADER OR ER TARGETED PROTAC FOR THE TREATMENT OF ESTROGEN RESPONSIVE CANCERS” (Duke University, priority 2022, published 2026).
“Also recorded” adds a separate entry of the source.

Key:
E0771 mammary tumors = assay: E0771 mammary tumor growth in ovariectomized mice receiving placebo or E2; assay type: in vivo, mouse
Method: (§1) Prior to implantation into animals, BPD6, E0771, and A7C11 cells were cultured in DMEM media supplemented with 8% fetal bovine serum, non-essential amino acids and sodium pyruvate. Cells were trypsinized and injected in phosphate buffered saline.
(§2) For all experiments, mice were ovariectomized under anesthesia at 7 weeks of age and were provided placebo or estrogen (2.72 mcg/mL) treatment in drinking water throughout the remainder of the experiment. 7 to 10 days after surgery 0.5×10^6 BPD6melanoma cells or E0771 (0.2×10^6) or A7C 11 (0.4×10^5) mammary cancer cells per mouse were injected subcutaneously (BPD6) or orthotopically (A7C11 or E0771) into the axial mammary gland. Tumor growth was monitored by caliper measurement at least 3× weekly and was calculated as L×W2×0.5. For those mice receiving treatment with SERDs, mice were randomized to treatment 2 days after tumor implantation. 3574 (camizestrant) and 3964 were administered PO QD (by mouth every day) formulated in 5% DMSO/20% hydroxypropyl-b-cyclodextrin. Fulvestrant was administered SC Q5D in 10% DMSO/95% corn oil.
(§3) At the conclusion of tumor measurement (approximately 2 weeks or when tumor reached 1.5-2 cm^3 volume), mice were euthanized by CO2 exposure followed by decapitation. Uteri were removed at necropsy and weighed as a measure of estrogen stimulation.
Analogous to the experiment in Example 4, E0771 mammary tumors were implanted in ovariectomized mice receiving E2 or placebo treatment.

BPD6 melanoma cells = assay: BPD6 melanoma tumor growth in ovariectomized mice receiving placebo or E2; assay type: in vivo, mouse; settings: BPD6 tumors
Method: as §1, §2, §3
(§4) To further explore the role of brain-expressed ER in tumor growth in the periphery, 2 SERDs were used with unique pharmacokinetics. […] ER-negative BPD6 melanoma cells were implanted into ovariectomized mice receiving either placebo or estradiol (E2) treatment in drinking water. After 48 hours, mice were randomized to receive vehicle (veh) or selective estrogen receptor degrader 3574 (10 mg/kg po qd; by mouth every day). Average tumor volume +/−SEM at each day of measurement was determined. Significance (p<0.05) was determined by 2-way ANOVA followed by Tukey's multiple comparison test. […] Treatment with anti-estrogens reversed this estradiol stimulation of tumor growth. E2 treated groups are included FIGS. 3A-3B.
To further explore the relationship between brain exposure to SERDs and tumor response, a second melanoma experiment was conducted in which BPD6 tumors were implanted into ovariectomized mice receiving vehicle or estradiol treatment. These groups were further subdivided to receive vehicle or treatment with 25, 50, or 100 mg/kg fulvestrant.

A7C11 mammary tumors = assay: A7C11 mammary tumor growth in C57BL6 mice receiving placebo or estradiol; assay type: in vivo, mouse; settings: for effect on tumor growth, fulvestrant alone: mice lacking estrogen exposure
Method: FIGS. 11a-11b. […] 2 days later mice were subdivided to receive treatment with vehicle or fulvestrant (25, 50 or 100 mg/kg sc q5d). Average tumor volume throughout treatment (FIG. 11A) and uterine weight (FIG. 11B) at necropsy are presented. Placebo and E2+Veh groups in (FIG. 11A) are common between graphs to facilitate comparison. * p<0.05, 2-way (FIG. 11A) or 1-way (FIG. 11B) ANOVA followed by Tukey multiple comparison test. […]
as §1
as §2, with “[…]. […]” for “oil.”

BPD6 melanoma tumors = assay: BPD6 tumor growth in mice with ER ablated in macrophages (LysMCre+) or littermate controls; assay type: in vivo, mouse
Method: FIG. 5. TUMOR GROWTH IS REPRESSED WITH ESTROGEN AND A BRAIN-EXCLUDED SERD. FIG. 5 is a graph of tumor growth for BPD6 tumors with or without ER for the various indicated drug treatments. […] An analogous experiment to that presented in FIGS. 2A-2B and FIGS. 3A-3B was conducted in mice in which ER expression in macrophages was ablated using a promoter (LysM) to drive expression of the Cre enzyme to delete this receptor specifically in this cell type in mice having a floxed allele of ER. BPD6 melanoma tumors were implanted subcutaneously into Cre+ (ER ablated in macrophage) or littermate (LM, phenotypically wild type) mice that had been ovariectomized and then assigned to placebo or E2 treatment.
as §2
It was previously determined that for some cancer subtypes, including melanoma, one mechanism by which estrogens modulate tumor growth is by promoting a pro-tumor anti-inflammatory M2-like phenotype in the tumor infiltrating macrophages. Using a genetic model employing Cre-Lox technology to specifically delete estrogen receptor in myeloid cells (including macrophages), it was previously determined that loss of estrogen receptor expression in this immune cell population results in the loss of estrogen modulation of tumor growth in these tumors. […] BOD6 tumors were implanted in ovariectomized ERflox/flox/LysMCre+ or ERflox/flox mice that received placebo or estradiol treatment. Mice were further randomized to receive vehicle or SERD 3574 (10 mg/kg po qd; by mouth every day). Average tumor volume +/−SEM was determined. Significance (p<0.05) was determined by 2-way ANOVA followed by Tukey's multiple comparison test.

uterus = assay: Uterine wet weight at necropsy as measure of estrogen stimulation; assay type: in vivo, mouse
Method: as §2, §3, §4

[1] = Brain penetration of the SERDs (pharmacokinetics); settings: stated as a property of the SERD, no test described
[2] = Cre- littermate control (LM) mice of the brain-ERKO experiment, E2 in drinking water

C[C@]12CC[C@@H]3c4ccc(O)cc4CC[C@H]3[C@@H]1CC[C@@H]2O [E2, 17β-estradiol]
effect of E2 on tumor growth vs placebo treated control (E0771 mammary tumors; [2]): accelerated the growth of the tumors
tumor volume relative to placebo control (E0771 mammary tumors; E2 treatment alone (FIG. 4A)): approximately 2 fold
effect of E2 on tumor growth vs placebo treated control (BPD6 melanoma cells; [2]): accelerated the growth of the tumors
increase in tumor growth as compared to placebo/vehicle treatment (BPD6 melanoma cells; ovariectomized wild-type mice, agent alone (FIG. 2B)): 3 fold
effect of E2 on tumor growth vs placebo treated control (A7C11 mammary tumors; [2]): accelerated the growth of the tumors
effect on tumor growth (A7C11 mammary tumors; estradiol (2.72 mcg/mL drinking water) and vehicle co-administered): increase in A7C11 tumor growth
effect of E2 on tumor growth (BPD6 melanoma tumors; Cre+ mice (ER ablated in macrophage)): without significant effect on tumor growth
tumor volume as compared to the placebo control (BPD6 melanoma tumors; Cre- LM control mice, E2 treatment): 2 fold
increase in uterine wet weight (uterus; estrogen treatment vs placebo, BPD6 tumor bearing ovariectomized mice (FIG. 2A)): ~10 fold

C[C@@H]1Cc2c(ccc3[nH]ncc23)[C@@H](c2ccc(NC3CN(CCCF)C3)cn2)N1CC(F)(F)F [compound 3574, camizestrant]
effect on E2 stimulation of tumor growth (E0771 mammary tumors; E2-treated mice, 3574 (10 mg/kg)): reversed E2 stimulation of tumor growth
brain penetration [1]: brain excluded
effect on E2 induced tumor growth (BPD6 melanoma cells; 3574 10 mg/kg po qd together with E2, 10 mg/kg): suppressed tumor growth below that observed in the placebo/vehicle treated control; also recorded: reversed E2 induced tumor growth, but in fact significantly repressed tumor growth as compared to placebo treatment alone
effect on tumor growth, SERD alone (BPD6 melanoma cells; placebo treated (no E2) mice, 3574 10 mg/kg po qd): without effect on tumor growth
effect on tumor growth, SERD alone (A7C11 mammary tumors; animals lacking estrogen exposure (FIGS. 12B-12D)): did not impact tumor growth
effect on tumor growth, SERD together with estrogen (A7C11 mammary tumors; estradiol treated mice (FIGS. 12B-12D)): further repressed tumor growth
effect on tumor growth vs Cre+ mice receiving E2 alone (BPD6 melanoma tumors; Cre+ mice, 3574 10 mg/kg po qd and E2 together): significantly inhibited tumor growth
effect on growth of tumors, SERD alone (BPD6 melanoma tumors; placebo treated Cre+ mice, 3574 10 mg/kg po qd): did not affect the growth of tumors
effect on E2 stimulation of the uterus (post-mortem uterine wet weight) (uterus; E0771 tumor bearing mice, all doses of the SERD): reversed E2 stimulation of the uterus
effect on E2 stimulation of uterine wet weight (uterus; SERD with E2, BPD6 tumor bearing ovariectomized mice): reversed E2 stimulation of uterine wet weight
effect on uterine weight, SERD alone (ER agonist activity) (uterus; placebo together with SERD, BPD6 tumor bearing ovariectomized mice): did not affect uterine weight

C[C@]12CC[C@@H]3c4ccc(O)cc4C[C@@H](CCCCCCCCC[S+]([O-])CCCC(F)(F)C(F)(F)F)[C@H]3[C@@H]1CC[C@@H]2O (stereo partly drawn) [fulvestrant]
effect on E2 stimulation of tumor growth (BPD6 melanoma cells; E2-treated mice, fulvestrant 25, 50, or 100 mg/kg): reversed E2 stimulation of tumor growth
effect on tumor growth, fulvestrant alone (BPD6 melanoma cells; placebo treated mice, fulvestrant 100 mg/kg): growth similar to that of the estrogen/vehicle control; also recorded: induced tumor growth itself
effect on estrogen induction of tumor growth (A7C11 mammary tumors; estradiol treated mice, 25, 50, or 100 mg/kg fulvestrant): similarly inhibited estrogen induction of A7C11 tumor growth
effect on tumor growth, fulvestrant alone (A7C11 mammary tumors; 25 mg/kg fulvestrant sc q5d): dose not affect A7C11 tumor growth
effect on tumor growth, fulvestrant alone (A7C11 mammary tumors; 50 or 100 mg/kg fulvestrant sc q5d): tumor growth comparable to that observed for the estrogen control group
effect on estrogen-dependent increases in uterine weight (uterus; A7C11 tumor bearing mice, fulvestrant 25, 50, or 100 mg/kg sc q5d): similarly repressed estrogen-dependent increases in uterine weight

Oc1ccc2c(c1)CC[C@H](c1ccccc1)[C@@H]2c1ccc(OCCN2CCCC2)cc1 [lasofoxifene]
effect on tumor growth as compared to the placebo/vehicle control group (A7C11 mammary tumors; 3 mg/kg lasofoxifene po qd co-administered with estradiol): repression of tumor growth
